From PMC3034256 (Chemistry & biology, 2011)

Tests used:
panel of PTPs = test: Screen against a panel of PTPs at 10 µM; type: biochemical; conditions: 10 µM compound, pNPP, pH 7, 25 °C
Jurkat T cells [1] = test: TCR-mediated tyrosine phosphorylation in Jurkat T cells; type: cell-based; conditions: 2 h pretreatment (2 µM; TTN 2–4 µM), 10 µg/mL anti-CD3
Jurkat T cells [2] = test: TCR-mediated ERK1/2 activation in Jurkat T cells; type: cell-based; conditions: 2 h pretreatment (2 µM), 10 µg/mL anti-CD3

Q: How did the “inhibitory activity against the panel of PTPs” value (panel of PTPs) turn out when `CO[C@H]([C@H](O)CC(=O)[C@@H](C)[C@@H](O)CC[C@@H](C)[C@@H]1O[C@]2(CC[C@@H](C)[C@H](CC[C@H](C)C(C)=O)O2)CC[C@@H]1C)[C@H](OC(=O)C[C@@H](O)C1=C(C)C(=O)OC1=O)C(C)C` [TTM, tautomycin, reference compound] was run?
A: neither TTM nor its analogs exhibited any inhibitory activity

Q: And the “effect on TCR-mediated tyrosine phosphorylation” value (Jurkat T cells [1])?
A: had no effect

Q: And the “effect on TCR-mediated ERK1/2 activation” value (Jurkat T cells [2])?
A: no appreciable change
